Patent publication US20230286969A1, “AROMATIC SPIRO RING AMIDE DERIVATIVES FOR THE TREATMENT AND PROPHYLAXIS OF HEPATITIS B VIRUS INFECTION” (Hoffmann-La Roche Inc., priority 2020, published 2023)
pIC50: −log10 of the molar value.

Tests used:
Assay type in all cases: cell-based
[1] = system: HBsAg; test: PHH HBV natural infection assay, HBsAg (alphalisa); settings: Hepatitis B virus, Hepatocyte, 72 h, read-out: HBsAg IC50, HBV-infected primary human hepatocytes, supernatant, compound medium refreshed two times with 72-hour interval
Description: (§1) Detailed procedures regarding primary human hepatocyte (PHH) HBV natural infection assay are described as below. One tube of frozen PHH (10 million cells) is thawed in 37° C. water bath and then transferred to 20 mL of PHH thawing medium (Sigma, InVitroGRO HT Medium, Cat. S03319) with gently mixing. The cells were then centrifuged at […] for 5 min, the supernatant was discarded and the tube was refilled with 25 mL of PHH plating medium (Sigma, InVitroGRO CP Medium, Cat. S03317). The tube was shaken very gently to re-suspend all cells, and then 50 μl of cells were transferred to each well 384-well collagen I coated plate with appropriate liquid handling equipment, e.g. Integra VIAFLO384 or Agilent Bravo. The cells were then cultured for 24 hours in a cell incubator. For HBV infection, after PHH attachment on the culture plate, the plating medium was removed and replenished with PHH culture medium containing HBV virus. The PHH culture medium was prepared with Dulbecco's Modified Eagle Medium (DMEM)/F12 (1:1 in volume ratio) containing 10% fetal bovine serum (Gibco, Cat. 10099141), 5 ng/mL human epidermal growth factor (Gibco, Cat.PHG0311L), 20 ng/mL dexamethasone (Sigma, Cat.D4902-100 mg), 250 ng/mL human recombinant insulin (Gibco, Cat.41400045) and 100 U/mL penicillin. HBV virus at 200 genome equivalent (GE) per cell with 4% PEG8000 (Sigma, Cat.P1458) containing culture medium were added to the PHH culture medium for infection. The cells were then cultured for 24 hours in cell incubator. Then the cell culture supernatant was removed. The HBV-infected PHH were cultured with sandwich culture method with PHH culture medium containing 1% DMSO and 0.25 mg/mL matrix gel for 72 hours. The supernatant was then refreshed with PHH culture medium containing different concentrations of testing compounds for two times with 72-hour interval. At the end of treatment, the supernatant was collected for viral markers measurements, including HBsAg, HBeAg, HBV DNA and cytotoxicity. HBsAg and HBeAg were detected using alphalisa method using their specific antibodies. For HBV DNA detection, HBV DNA Quantitative Fluorescence Diagnostic Kit (Sansure Biotech Inc.) was used following the manufacture's protocol. Cytotoxicity was determined using Cell Counting Kit-8 (CCK8, Dojindo Molecular Technologies, Inc.).
(§2) The compounds of the present invention were tested for their capacity to inhibit HBsAg and HBeAg as described herein.

[2] = system: HBeAg; test: PHH HBV natural infection assay, HBeAg (alphalisa); settings: Hepatitis B virus, Hepatocyte, 72 h, read-out: HbeAg IC50, HBV-infected primary human hepatocytes, supernatant, compound medium refreshed two times with 72-hour interval
Description: as §1, §2

[3] = PHH natural infection assay, cytotoxicity (Cell Counting Kit-8); settings: human, HBV-infected primary human hepatocytes, CCK8, end of treatment
Description: as §1

Compound | pIC50 [1] | pIC50 [2] | CC50 at 144 h [3]
O=C(NC1CC2(C1)CC(c1nc3cc(Cl)ccc3o1)C2)c1ccc(Cl)o1 (stereo not drawn) [Example 6, 5-chloro-N-[6-(5-chloro-1,3-benzoxazol-2-yl)spiro[3.3]heptan-2-yl]furan-2-carboxamide] | 5.56 | 5.68 | > 100 µM
O=C(NC1CC2(C1)CC(c1nc3cc(Cl)cnc3o1)C2)c1ccc([S+]([O-])C2CC2)o1 (stereo not drawn) [Example 50, N-[6-(6-chlorooxazolo[5,4-b]pyridin-2-yl)spiro[3.3]heptan-2-yl]-5-cyclopropylsulfinyl-furan-2-carboxamide] | 6.27 | 6.46 | > 100 µM
O=C(NC1CC2(C1)CC(c1nc3cc(Cl)ccc3o1)C2)c1ccc(S(=O)(=O)NC(=O)C2CCCS(=O)(=O)C2)o1 (stereo not drawn) [Example 85, N-[6-(5-chloro-1,3-benzoxazol-2-yl)spiro[3.3]heptan-2-yl]-5-[(1,1-dioxothiane-3-carbonyl)sulfamoyl]furan-2-carboxamide] | 5.60 | 5.78 | > 10 µM
CC(C)c1ccc(C(=O)NC2CC3(C2)CC(c2nc4cc(Cl)ccc4o2)C3)o1 (stereo not drawn) [Example 7, N-[6-(5-chloro-1,3-benzoxazol-2-yl)spiro[3.3]heptan-2-yl]-5-isopropyl-furan-2-carboxamide] | 5.45 | 5.87 | 85.9 µM
CS(=O)(=O)Cc1ccc(C(=O)NC2CC3(C2)CC(c2nc4cc(Cl)ccc4o2)C3)o1 (stereo not drawn) [Example 30, N-[6-(5-chloro-1,3-benzoxazol-2-yl)spiro[3.3]heptan-2-yl]-5-(methylsulfonylmethyl)furan-2-carboxamide] | 5.40 | 5.66 | > 100 µM
O=C(NC1CC2(C1)CC(c1nc3cc(Cl)ccc3o1)C2)c1cc(C(F)(F)F)n[nH]1 (stereo not drawn) [Example 12, N-[6-(5-chloro-1,3-benzoxazol-2-yl)spiro[3.3]heptan-2-yl]-3-(trifluoromethyl)-1H-pyrazole-5-carboxamide] | 5.40 | 5.16 | 30.2 µM
[H][C@]1(NC(=O)c2ccc([S@](C)(=N)=O)o2)C[C@]2(C1)C[C@]([H])(c1nc3cc(Cl)ccc3o1)C2 (stereo partly drawn) [Example 52-d, (Ra)—N-[6-(5-chloro-1,3-benzoxazol-2-yl)spiro[3.3]heptan-2-yl]-5-[(R)-methylsulfonimidoyl]furan-2-carboxamide] | 6.02 | 6.06 | > 100 µM
O=C(NC1CC2(C1)CC(c1nc3cc(Cl)ccc3o1)C2)c1ccc(Br)o1 (stereo not drawn) [Example 3, 5-bromo-N-[6-(5-chloro-1,3-benzoxazol-2-yl)spiro[3.3]heptan-2-yl]furan-2-carboxamide] | 5.01 | 5.12 | 96.2 µM
CS(=O)(=O)c1ccc(C(=O)NC2CC3(C2)CC(c2nc4cc(Cl)ccc4o2)C3)s1 (stereo not drawn) [Example 45, N-[6-(5-chloro-1,3-benzoxazol-2-yl)spiro[3.3]heptan-2-yl]-5-methylsulfonyl-thiophene-2-carboxamide] | 5.66 | 5.72 | > 100 µM
N=S(=O)(c1ccc(C(=O)NC2CC3(C2)CC(c2nc4cc(Cl)cnc4o2)C3)o1)C1CC1 (stereo not drawn) [Example 64, N-[6-(6-chlorooxazolo[5,4-b]pyridin-2-yl)spiro[3.3]heptan-2-yl]-5-(cyclopropylsulfonimidoyl)furan-2-carboxamide] | 5.53 | 5.63 | > 100 µM
CC(C)S(=N)(=O)Cc1ccc(C(=O)NC2CC3(C2)CC(c2nc4cc(Cl)ccc4o2)C3)o1 (stereo not drawn) [Example 59, N-[6-(5-chloro-1,3-benzoxazol-2-yl)spiro[3.3]heptan-2-yl]-5-[(isopropylsulfonimidoyl)methyl]furan-2-carboxamide] | 5.42 | 5.59 | > 100 µM
CS(=O)(=O)CCc1ccc(C(=O)NC2CC3(C2)CC(c2nc4cc(Cl)ccc4o2)C3)o1 (stereo not drawn) [Example 32, N-[6-(5-chloro-1,3-benzoxazol-2-yl)spiro[3.3]heptan-2-yl]-5-(2-methylsulfonylethyl)furan-2-carboxamide] | 5.31 | 5.50 | > 100 µM
